Laboratory results reported in patent publication US10927105B1 (Lundbeck La Jolla Research Center, Inc., priority 2017, dated 2021).

Each compound was assayed against MAGL (Homo sapiens (Human), UniProt Q99685) (assay: In vitro competitive activity-based protein profiling (human prefrontal cortex membrane fractions, FP-Rh probe), MAGL band). Settings: read-out: MAGL IC50 (μM) (human); human prefrontal cortex membrane fractions.
Chain of MAGL (Q99685 whole entry): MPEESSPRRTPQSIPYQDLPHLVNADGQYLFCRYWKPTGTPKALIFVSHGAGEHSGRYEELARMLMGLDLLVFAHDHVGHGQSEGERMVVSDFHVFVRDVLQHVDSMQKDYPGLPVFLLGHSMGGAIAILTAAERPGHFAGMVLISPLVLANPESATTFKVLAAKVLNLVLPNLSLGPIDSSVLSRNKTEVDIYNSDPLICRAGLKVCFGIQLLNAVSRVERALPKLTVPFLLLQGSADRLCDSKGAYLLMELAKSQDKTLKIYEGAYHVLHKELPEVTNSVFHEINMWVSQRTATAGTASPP
Method: Biological Evaluation In Vitro Competitive Activity-Based Protein Profiling.
Proteomes (mouse brain membrane fraction for mouse assays; human prefrontal cortex membrane fractions for human assays) (50 mL, 1.0 mg/mL total protein concentration) were preincubated with varying concentrations of inhibitors at 37° C. After 30 min, FP-Rh (1.0 mL, 50 mM in DMSO) was added and the mixture was incubated for another 30 min at 37° C. Reactions were quenched with SDS loading buffer (15 μL-4×) and run on SDS-PAGE.

Row | SMILES | IC50 [µM]
1 | NC(=O)c1ccn(C(=O)N2CCC3(CCCN3C(=O)c3cc4ccc(C(F)(F)F)cc4s3)CC2)n1 [Example 389, 1-(1-(6-(trifluoromethyl)-benzo-[b]thiophene-2-carbonyl)-1,8-diazaspiro-[4.5]decane-8-carbonyl)-1H-pyrazole-3-carboxamide] | < 0.1
2 | O=C(O)c1nn(C(=O)N2C[C@H]3C[C@H](OCc4cccc(C(F)(F)F)c4)C[C@H]3C2)cc1Cl [Example 314, 4-chloro-1-(trans-5-((3-(trifluoromethyl)-benzyl)oxy)-octahydrocyclopenta-[c]pyrrole-2-carbonyl)-1H-pyrazole-3-carboxylic acid] | < 0.1
3 | C[C@@H]1CN(Cc2ccc(-c3ccccc3)cc2F)CCN1C(=O)n1ccc(C(=O)O)n1 [Example 253, (R)-1-(4-((3-fluoro-[1,1′-biphenyl]-4-yl)methyl)-2-methylpiperazine-1-carbonyl)-1H-pyrazole-3-carboxylic acid] | < 0.1
4 | O=C(O)c1ccn(C(=O)N2CCC3(CC2)CN(Cc2cc(Cl)ccc2C(F)(F)F)C3)n1 [Example 313, 1-(2-(5-chloro-2-(trifluoromethyl)-benzyl)-2,7-diazaspiro[3.5]-nonane-7-carbonyl)-1H-pyrazole-3-carboxylic acid] | < 0.1
5 | Cc1c(CO[C@H]2C[C@@H]3CN(C(=O)n4cc(Cl)c(C(=O)O)n4)C[C@@H]3C2)cccc1C(F)(F)F [Example 341, 4-chloro-1-(trans-5-((2-methyl-3-(trifluoromethyl)-benzyl)oxy)-octahydrocyclopenta-[c]pyrrole-2-carbonyl)-1H-pyrazole-3-carboxylic acid] | < 0.1
6 | O=C(O)c1ccn(C(=O)N2CCC3(CCN(Cc4cc(Cl)cc(C(F)(F)F)c4)C3)CC2)n1 [Example 72, 1-(2-(3-chloro-5-(trifluoromethyl)-benzyl)-2,8-diazaspiro[4.5]-decane-8-carbonyl)-1H-pyrazole-3-carboxylic acid] | < 0.1
7 | O=C(O)c1ccn(C(=O)N2C[C@H]3C[C@H](Oc4ccccc4C4CCOCC4)C[C@H]3C2)n1 [Example 268, 1-(trans-5-(2-(tetrahydro-2H-pyran-4-yl)phenoxy)-octahydrocyclopenta-[c]pyrrole-2-carbonyl)-1H-pyrazole-3-carboxylic acid] | < 0.1
8 | O=C(O)c1ccn(C(=O)N2CCN(Cc3ccc(C(F)(F)F)cc3N3CCCCC3)CC2)n1 [Example 100, 1-(4-(2-(piperidin-1-yl)-4-(trifluoromethyl)-benzyl)-piperazine-1-carbonyl)-1H-pyrazole-3-carboxylic acid] | < 0.1
9 | O=C(O)c1ccn(C(=O)N2CCN(Cc3cccc(Oc4ccccc4Cl)c3)CC2)n1 [Example 85, 1-(4-(3-(2-chlorophenoxy)-benzyl)piperazine-1-carbonyl)-1H-pyrazole-3-carboxylic acid] | < 0.1
10 | CC(C)c1cccc(O[C@H]2C[C@@H]3CN(C(=O)n4ccc(C(=O)O)n4)C[C@@H]3C2)c1 [Example 220, 1-(trans-5-(3-isopropylphenoxy)-octahydrocyclopenta-[c]pyrrole-2-carbonyl)-1H-pyrazole-3-carboxylic acid] | < 0.1
11 | NC(=O)c1ccn(C(=O)N2CCN(Cc3cccc(C(F)(F)F)c3N3CCOCC3)CC2)n1 [Example 199, 1-(4-(2-morpholino-3-(trifluoromethyl)-benzyl)piperazine-1-carbonyl)-1H-pyrazole-3-carboxamide] | < 0.1
12 | NC(=O)c1ccn(C(=O)N2CCC3(CCN(Cc4cc(Cl)ccc4Cl)C3)C2)n1 (centres unmarked) [Example 426, 1-(7-(2,5-dichlorobenzyl)-2,7-diazaspiro[4.4-]-nonane-2-carbonyl)-1H-pyrazole-3-carboxamide] | < 0.1
13 | Cc1ccc(COC2CCN(C(=O)n3ccc(C(=O)O)n3)CC2)cc1C(F)(F)F [Example 236, 1-(4-((4-methyl-3-(trifluoromethyl)-benzyl)oxy)-piperidine-1-carbonyl)-1H-pyrazole-3-carboxylic acid] | < 0.1
14 | O=C(O)c1ccn(C(=O)N2CCN(Cc3ccc(C(F)(F)F)cc3N3CC[C@@H](O)C3)CC2)n1 [Example 333, (R)-1-(4-(2-(3-hydroxypyrrolidin-1-yl)-4-(trifluoromethyl)-benzyl)-piperazine-1-carbonyl)-1H-pyrazole-3-carboxylic acid] | < 0.1
15 | O=C(O)c1ccn(C(=O)N2CCN(Cc3cccc(Oc4cccc(C(F)(F)F)n4)c3)CC2)n1 [Example 353, 1-(4-(3-((6-(trifluoromethyl)-pyridin-2-yl)oxy)benzyl)-piperazine-1-carbonyl)-1H-pyrazole-3-carboxylic acid] | < 0.1
16 | O=C(O)c1nn(C(=O)N2CCN(Cc3cc(F)cc(Oc4ccc(Cl)cc4)c3)CC2)cc1Cl [Example 378, 4-chloro-1-(4-(3-(4-chlorophenoxy)-5-fluorobenzyl)-piperazine-1-carbonyl)-1H-pyrazole-3-carboxylic acid] | < 0.1

Row | SMILES | IC50 [µM]
17 | O=C(O)c1ccn(C(=O)N2CCN(Cc3cc(Cl)cc(-c4cncnc4)c3)CC2)n1 [Example 269, 1-(4-(3-chloro-5-(pyrimidin-5-yl)benzyl)-piperazine-1-carbonyl)-1H-pyrazole-3-carboxylic acid] | < 0.1
18 | CC(C)(O)COc1cccc(CO[C@H]2C[C@@H]3CN(C(=O)n4ccc(C(=O)O)n4)C[C@@H]3C2)c1Cl [Example 38, 1-(trans-5-((2-Chloro-3-(2-hydroxy-2-methylpropoxy)benzyl)oxy)octahydrocyclopenta[c]pyrrole-2-carbonyl)-1H-pyrazole-3-carboxylic Acid] | < 0.1
19 | NC(=O)c1ccn(C(=O)N2CCC3(CCN(Cc4cc(Cl)cc(C(F)(F)F)c4)C3)C2)n1 (centres unmarked) [Example 433, 1-(7-(3-chloro-5-(trifluoromethyl)-benzyl)-2,7-diazaspiro[4.4]-nonane-2-carbonyl)-1H-pyrazole-3-carboxamide] | < 0.1
20 | O=C(O)c1nn(C(=O)N2CCC3(CCN(Cc4cc(Cl)ccc4C(F)(F)F)C3)CC2)cc1Cl [Example 133, 4-chloro-1-(2-(5-chloro-2-(trifluoromethyl)-benzyl)-2,8-diazaspiro[4.5]-decane-8-carbonyl)-1H-pyrazole-3-carboxylic acid] | < 0.1
21 | Cc1cn(C(=O)N2C[C@H]3C[C@H](OCc4cccc(C(F)(F)F)c4C)C[C@H]3C2)nc1C(=O)O [Example 306, 4-methyl-1-(trans-5-((2-methyl-3-(trifluoromethyl)-benzyl)oxy)-octahydrocyclopenta-[c]pyrrole-2-carbonyl)-1H-pyrazole-3-carboxylic acid] | < 0.1
22 | Cc1cn(C(=O)N2C[C@H]3C[C@H](Oc4cccc(-c5ccccc5)c4)C[C@H]3C2)nc1C(=O)O [Example 280, 1-(trans-5-([1,1′-biphenyl]-3-yloxy)-octahydrocyclopenta-[c]pyrrole-2-carbonyl)-4-methyl-1H-pyrazole-3-carboxylic acid] | < 0.1
23 | O=C(O)c1ccn(C(=O)N2C[C@H]3C[C@H](Oc4cc(Cl)cc(Cl)c4)C[C@H]3C2)n1 [Example 230, 1-(trans-5-(3,5-dichlorophenoxy)-octahydrocyclopenta-[c]pyrrole-2-carbonyl)-1H-pyrazole-3-carboxylic acid] | < 0.1
24 | C[C@@H]1CN(Cc2ccc(Cl)c(-c3nccs3)c2)CCN1C(=O)n1ccc(C(=O)O)n1 [Example 299, (R)-1-(4-(4-chloro-3-(thiazol-2-yl)benzyl)-2-methylpiperazine-1-carbonyl)-1H-pyrazole-3-carboxylic acid] | < 0.1
25 | O=C(O)c1ccn(C(=O)N2C[C@H]3C[C@H](OCc4cc(F)cc(Cl)c4)C[C@H]3C2)n1 [Example 53, 1-(trans-5-((3-chloro-5-fluorobenzyl)oxy)-octahydrocyclopenta-[c]pyrrole-2-carbonyl)-1H-pyrazole-3-carboxylic acid] | < 0.1
26 | CC(C)(O)COc1cccc(CN2CCN(C(=O)n3ccc(C(N)=O)n3)CC2)c1Cl [Example 37, 1-(4-(2-Chloro-3-(2-hydroxy-2-methylpropoxy)benzyl)piperazine-1-carbonyl)-1H-pyrazole-3-carboxamide] | < 0.1
27 | O=C(O)c1nn(C(=O)N2CCN(Cc3ccc(C(F)(F)F)cc3N3CCCC3)CC2)cc1Cl [Example 443, 4-chloro-1-(4-(2-(pyrrolidin-1-yl)-4-(trifluoromethyl)-benzyl)-piperazine-1-carbonyl)-1H-pyrazole-3-carboxylic acid] | < 0.1
28 | O=C(O)c1nn(C(=O)N2CCN(Cc3cccc(Oc4ccc(F)cc4)c3)CC2)cc1Cl [Example 320, 4-chloro-1-(4-(3-(4-fluorophenoxy)-benzyl)-piperazine-1-carbonyl)-1H-pyrazole-3-carboxylic acid] | < 0.1
29 | CNC(=O)c1ccn(C(=O)N2CC3CN(Cc4ccc(N5CCOCC5)cc4C(F)(F)F)CC3C2)n1 (centres unmarked) [Example 440, N-methyl-1-(5-(4-morpholino-2-(trifluoromethyl)-benzyl)-octahydropyrrolo-[3,4-c]pyrrole-2-carbonyl)-1H-pyrazole-3-carboxamide] | < 0.1
30 | CNC(=O)c1ccn(C(=O)N2CC3CN(Cc4cc(Cl)ccc4Cl)CC3C2)n1 (centres unmarked) [Example 430, 1-(5-(2,5-dichlorobenzyl)-octahydropyrrolo-[3,4-c]pyrrole-2-carbonyl)-N-methyl-1H-pyrazole-3-carboxamide] | < 0.1
31 | O=C(O)c1ccn(C(=O)N2C[C@H]3C[C@H](Oc4ccccc4-c4cccnc4)C[C@H]3C2)n1 [Example 244, 1-(trans-5-(2-(pyridin-3-yl)phenoxy)-octahydrocyclopenta-[c]pyrrole-2-cathonyl)-1H-pyrazole-3-carboxylic acid] | < 0.1
32 | Cc1cn(C(=O)N2C[C@H]3C[C@H](OCc4cc(F)cc(Cl)c4)C[C@H]3C2)nc1C(=O)O [Example 252, 1-(trans-5-((3-chloro-5-fluorobenzyl)oxy)-octahydrocyclopenta-[c]pyrrole-2-carbonyl)-4-methyl-1H-pyrazole-3-carboxylic acid] | < 0.1
